Reference: ChEMBL document CHEMBL1201862, “PubChem BioAssay data set” (2004)
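Test compounds were applied to cells in 96-well plates for 48 hours at 5 doses. GI50 marks 50% less growth.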 Active and inactive are the calls of the source. Rule as the data show it: active = GI50 up to about 1.1 µM and inactive = higher.

Key:
Test in all cases: NCI tumour cell line growth inhibition, 48 h
NCI-H226 = test system: NCI-H226
HOP-62 = test system: HOP-62
UACC-62 = test system: UACC-62
M19-MEL = test system: M19-MEL
NCI-H23 = test system: NCI-H23
SK-OV-3 = test system: SK-OV-3
KM-20L2 = test system: KM-20L2
HL-60 = test system: HL-60
SNB-75 = test system: SNB-75
A549 = test system: A549
SN12C = test system: SN12C
K562 = test system: K562
SK-MEL-28 = test system: SK-MEL-28
OVCAR-3 = test system: OVCAR-3
XF498 = test system: XF498
IGROV-1 = test system: IGROV-1
KM12 = test system: KM12
U-251 = test system: U-251
A498 = test system: A498
M14 = test system: M14
HCT-116 = test system: HCT-116
NCI-H460 = test system: NCI-H460
EKVX = test system: EKVX
SW-620 = test system: SW-620
DMS-273 = test system: DMS-273
SR = test system: SR
SF-268 = test system: SF-268
RPMI-8226 = test system: RPMI-8226
HOP-18 = test system: HOP-18
HOP-92 = test system: HOP-92
HT-29 = test system: HT-29
CCRF-CEM = test system: CCRF-CEM
SF-539 = test system: SF-539
DLD-1 = test system: DLD-1
HCC 2998 = test system: HCC 2998
RXF 393 = test system: RXF 393
OVCAR-4 = test system: OVCAR-4
TK-10 = test system: TK-10
Malme-3M = test system: Malme-3M
SK-MEL-2 = test system: SK-MEL-2
UO-31 = test system: UO-31
SK-MEL-5 = test system: SK-MEL-5
MOLT-4 = test system: MOLT-4
HCT-15 = test system: HCT-15
OVCAR-8 = test system: OVCAR-8
SF-295 = test system: SF-295
LOX IMVI = test system: LOX IMVI
LXFL 529 = test system: LXFL 529
COLO 205 = test system: COLO 205
UACC-257 = test system: UACC-257
NCI-H522 = test system: NCI-H522
DMS-114 = test system: DMS-114
ACHN = test system: ACHN
SNB-78 = test system: SNB-78
SNB-19 = test system: SNB-19

## Nc1nc(Cl)cc(NCCCCCCCCCCCCNc2cc(Cl)nc(N)n2)n1
NCI-H226
  GI50: 15 µM (inactive)
HOP-62
  GI50: 12.2 µM (inactive)
UACC-62
  GI50: 6.84 µM (inactive)
M19-MEL
  GI50: 11.8 µM (inactive)
NCI-H23
  GI50: 0.0136 µM (active)
SK-OV-3
  GI50: 32.4 µM (inactive)
KM-20L2
  GI50: 49.1 µM (inactive)
HL-60
  GI50: 1.14 µM (inactive)
SNB-75
  GI50: 8.53 µM (inactive)
A549
  GI50: 7.45 µM (inactive)
SN12C
  GI50: 32.7 µM (inactive)
K562
  GI50: 0.0655 µM (active)
SK-MEL-28
  GI50: 7.67 µM (inactive)
OVCAR-3
  GI50: 11.1 µM (inactive)
XF498
  GI50: 0.386 µM (active)
IGROV-1
  GI50: 15.8 µM (inactive)
KM12
  GI50: 83 µM (inactive)
U-251
  GI50: 0.345 µM (active)
A498
  GI50: 12.9 µM (inactive)
M14
  GI50: 38 µM (inactive)
HCT-116
  GI50: 0.832 µM (active)
NCI-H460
  GI50: 2.5 µM (inactive)
EKVX
  GI50: 12.3 µM (inactive)
SW-620
  GI50: 28.8 µM (inactive)
DMS-273
  GI50: 7.57 µM (inactive)
SR
  GI50: 1.99 µM (inactive)
SF-268
  GI50: 28.2 µM (inactive)
RPMI-8226
  GI50: > 100 µM (inactive)
HOP-18
  GI50: > 100 µM (inactive)
HOP-92
  GI50: 2.87 µM (inactive)
HT-29
  GI50: 10.5 µM (inactive)
CCRF-CEM
  GI50: 1.69 µM (inactive)
SF-539
  GI50: 15.2 µM (inactive)
DLD-1
  GI50: 4.61 µM (inactive)
HCC 2998
  GI50: 38.5 µM (inactive)
RXF 393
  GI50: 9.75 µM (inactive)
OVCAR-4
  GI50: 4.36 µM (inactive)
TK-10
  GI50: 23.6 µM (inactive)
Malme-3M
  GI50: 24.4 µM (inactive)
SK-MEL-2
  GI50: 34.4 µM (inactive)
UO-31
  GI50: 31.7 µM (inactive)
SK-MEL-5
  GI50: 0.0861 µM (active)
MOLT-4
  GI50: 1.33 µM (inactive)
HCT-15
  GI50: 7.93 µM
OVCAR-8
  GI50: 10.1 µM (inactive)
SF-295
  GI50: 1.41 µM (inactive)
LOX IMVI
  GI50: 0.0869 µM (active)
LXFL 529
  GI50: 0.769 µM (active)
COLO 205
  GI50: 19.9 µM (inactive)
UACC-257
  GI50: 0.515 µM (active)

## COc1ccc(/C=N/NC(=O)NCCCN(C)C)cc1
NCI-H226
  GI50: > 100 µM (inactive)
UACC-62
  GI50: > 100 µM (inactive)
NCI-H23
  GI50: > 100 µM (inactive)
SK-OV-3
  GI50: > 100 µM (inactive)
NCI-H522
  GI50: > 100 µM (inactive)
HL-60
  GI50: > 100 µM (inactive)
DMS-114
  GI50: > 100 µM (inactive)
A549
  GI50: > 100 µM (inactive)
SN12C
  GI50: > 100 µM (inactive)
K562
  GI50: > 100 µM (inactive)
SK-MEL-28
  GI50: > 100 µM (inactive)
OVCAR-3
  GI50: > 100 µM (inactive)
XF498
  GI50: > 100 µM (inactive)
IGROV-1
  GI50: > 100 µM (inactive)
KM12
  GI50: > 100 µM (inactive)
U-251
  GI50: > 100 µM (inactive)
A498
  GI50: > 100 µM (inactive)
ACHN
  GI50: > 100 µM (inactive)
HCT-116
  GI50: > 100 µM (inactive)
NCI-H460
  GI50: > 100 µM (inactive)
SW-620
  GI50: > 100 µM (inactive)
DMS-273
  GI50: > 100 µM (inactive)
SF-268
  GI50: > 100 µM (inactive)
HOP-18
  GI50: > 100 µM (inactive)
HT-29
  GI50: > 100 µM (inactive)
CCRF-CEM
  GI50: > 100 µM (inactive)
SF-539
  GI50: > 100 µM (inactive)
DLD-1
  GI50: > 100 µM (inactive)
RXF 393
  GI50: > 100 µM (inactive)
TK-10
  GI50: > 100 µM (inactive)
Malme-3M
  GI50: > 100 µM (inactive)
SK-MEL-2
  GI50: > 100 µM (inactive)
UO-31
  GI50: > 100 µM (inactive)
SK-MEL-5
  GI50: > 100 µM (inactive)
MOLT-4
  GI50: > 100 µM (inactive)
SNB-78
  GI50: > 100 µM (inactive)
HCT-15
  GI50: > 100 µM
OVCAR-8
  GI50: > 100 µM (inactive)
SF-295
  GI50: > 100 µM (inactive)
LOX IMVI
  GI50: 85.9 µM (inactive)
SNB-19
  GI50: > 100 µM (inactive)
UACC-257
  GI50: > 100 µM (inactive)
